The text below walks through data of PubChem BioAssay (NCI).

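All cell lines were grown in 96-well plates and treated with compound for 48 hours. At the GI50, growth is halved. The concentration for full growth arrest is given as TGI.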

Among the test systems are SF-295 CNS; NCI-H522 lung; K-562 leukemia; COLO 205 colon; SK-MEL-28 melanoma; SF-539 CNS; SK-MEL-5 melanoma; SF-268 CNS; SK-MEL-2 melanoma; CAKI-1 renal.
Assay in all cases: NCI-60 cell line screen, 48 h

Take `Cc1ccc(C2=NOC3=c4ccccc4=CSC3=C2c2ccc([N+](=O)[O-])cc2)cc1`: the GI50 in the assay with SF-295 CNS is 13.3 µM; in the assay with NCI-H522 lung, 12.5 µM; in the assay with K-562 leukemia it was 36.1 µM; in the assay with COLO 205 colon, 35.8 µM; in the assay on SK-MEL-28 melanoma it was over 100 µM; with SF-539 CNS, 7.18 µM. The GI50 with SK-MEL-5 melanoma was 11.4 µM; in the assay with SF-268 CNS it was 18.1 µM; in the assay on SK-MEL-2 melanoma, 31.5 µM; with CAKI-1 renal it was 16.8 µM. The TGI in the assay on SF-295 CNS was 49.9 µM; in the assay with NCI-H522 lung, 68.5 µM; in the assay on K-562 leukemia it was over 100 µM; in the assay on COLO 205 colon, over 100 µM; with SK-MEL-28 melanoma it was over 100 µM; with SF-539 CNS, 25.4 µM. Besides, the TGI is 37.6 µM in the assay with SK-MEL-5 melanoma, 46.7 µM in the assay with SF-268 CNS, over 100 µM in the assay with SK-MEL-2 melanoma and 46.8 µM in the assay on CAKI-1 renal.
Take `O=C1C=C(Br)c2c(-c3ccccc3)oc3cccc1c23`: the TGI in the assay with SF-295 CNS is over 100 µM; in the assay on NCI-H522 lung, over 100 µM; in the assay on K-562 leukemia it was over 86.8 µM; in the assay on COLO 205 colon it was over 100 µM; in the assay with SK-MEL-28 melanoma, over 100 µM; in the assay with SF-539 CNS it was over 94.2 µM. Besides, the TGI is over 100 µM with SK-MEL-5 melanoma, over 81.6 µM in the assay with SF-268 CNS, over 100 µM with SK-MEL-2 melanoma and over 100 µM with CAKI-1 renal.
Consider `N/C(=N\N=C\c1ccc(-c2ccccc2)cc1)N[N+](=O)[O-]`, for which the GI50 in the assay on SF-295 CNS is 2.61 µM; in the assay on NCI-H522 lung, 2.13 µM; in the assay with K-562 leukemia, 0.481 µM; with COLO 205 colon it was 3.38 µM; in the assay with SK-MEL-28 melanoma it was 25.3 µM; in the assay with SF-539 CNS, 2.12 µM. For the same compound, the GI50 in the assay on SK-MEL-5 melanoma is 3.52 µM; in the assay with SF-268 CNS it was 7.07 µM; in the assay on SK-MEL-2 melanoma, 4.82 µM; with CAKI-1 renal it was 4.17 µM. The TGI in the assay with SF-295 CNS is over 100 µM; in the assay with NCI-H522 lung, over 100 µM; with K-562 leukemia, over 100 µM; in the assay with COLO 205 colon, over 42.1 µM; in the assay on SK-MEL-28 melanoma it was over 100 µM; in the assay with SF-539 CNS, over 100 µM. Further, the TGI with SK-MEL-5 melanoma, in the assay on SF-268 CNS, in the assay on SK-MEL-2 melanoma and in the assay with CAKI-1 renal was over 100 µM each time.
Consider `O=C1OC(CCCl)(c2ccccc2)CC1CN1CCOCC1` (stereo not given), for which the TGI was over 100 µM with SF-295 CNS; 33.5 µM in the assay with NCI-H522 lung; 61.3 µM in the assay with K-562 leukemia; 35.4 µM in the assay on COLO 205 colon; 36.9 µM with SK-MEL-28 melanoma; 70.1 µM with SF-539 CNS. For the same compound, the TGI in the assay on SK-MEL-5 melanoma is 41.7 µM; in the assay on SF-268 CNS, over 100 µM; with SK-MEL-2 melanoma it was 57.5 µM; in the assay on CAKI-1 renal it was 24.6 µM.
`C[C@]12CC[C@H]3[C@@H](CCC4=CC(=O)CC[C@@H]43)[C@@H]1CC[C@@H]2OC(=O)CCc1ccccc1`: the GI50 with SF-295 CNS was 15.5 µM; with NCI-H522 lung, 19.4 µM; in the assay on K-562 leukemia it was 18.8 µM; in the assay on COLO 205 colon, 16.3 µM; in the assay with SK-MEL-28 melanoma it was 16.8 µM; with SF-539 CNS it was 16.3 µM. Besides, the GI50 was 13 µM in the assay with SK-MEL-5 melanoma, 15.1 µM in the assay on SF-268 CNS, 41 µM in the assay on SK-MEL-2 melanoma and 12 µM with CAKI-1 renal. For the same compound, the TGI in the assay on SF-295 CNS was 30.6 µM; with NCI-H522 lung it was 41.7 µM; with K-562 leukemia it was over 69 µM; with COLO 205 colon, 40.1 µM; with SK-MEL-28 melanoma it was 37 µM; in the assay with SF-539 CNS, 30.5 µM. Further, the TGI with SK-MEL-5 melanoma was 26 µM; in the assay on SF-268 CNS, 29.6 µM; in the assay with SK-MEL-2 melanoma, over 100 µM; with CAKI-1 renal, 26.2 µM.
`O=C(O)C1(P(=O)(O)O)CC1`: the TGI in the assay on SF-295 CNS, in the assay on NCI-H522 lung, in the assay on K-562 leukemia, with COLO 205 colon, in the assay on SK-MEL-28 melanoma and in the assay with SF-539 CNS was over 100 µM throughout. Besides, the TGI in the assay on SK-MEL-5 melanoma, in the assay with SF-268 CNS, in the assay with SK-MEL-2 melanoma and with CAKI-1 renal was over 100 µM each time.
Turning to `O[C@H]1CO[C@H]2[C@@H]1OC[C@@H]2Oc1ccc(Nc2ccnc(Nc3ccc(O[C@H]4CO[C@H]5[C@@H]4OC[C@@H]5O)c(Cl)c3)n2)cc1Cl`, the GI50 in the assay on SF-295 CNS is 1.65 µM; in the assay with NCI-H522 lung, 1.17 µM; in the assay with K-562 leukemia, 1.27 µM; in the assay on COLO 205 colon, 1.86 µM; in the assay on SK-MEL-28 melanoma it was 3.04 µM; with SF-539 CNS it was 2.22 µM. Also, the GI50 in the assay with SK-MEL-5 melanoma was 1.17 µM; in the assay on SF-268 CNS it was 1.63 µM; in the assay on SK-MEL-2 melanoma, 1.71 µM; with CAKI-1 renal, 1.79 µM. The TGI in the assay with SF-295 CNS was 3.22 µM; in the assay with NCI-H522 lung, 3.69 µM; with K-562 leukemia, 18.4 µM; in the assay with COLO 205 colon, 6.16 µM; with SK-MEL-28 melanoma, 11.6 µM; in the assay on SF-539 CNS, 7.16 µM. Besides, the TGI was determined as 2.43 µM in the assay on SK-MEL-5 melanoma, 4.98 µM in the assay with SF-268 CNS, 5.02 µM in the assay with SK-MEL-2 melanoma and 10.2 µM with CAKI-1 renal.
Turning to `CN(C)c1ccc(/C=C\c2cccc[n+]2C)cc1`, the GI50 in the assay with SF-295 CNS is 4.33 µM; with NCI-H522 lung, 10.2 µM; in the assay on K-562 leukemia, 2.22 µM; in the assay with COLO 205 colon, 1.22 µM; in the assay on SK-MEL-28 melanoma, 14.8 µM; in the assay on SF-539 CNS, 12.3 µM. Moreover, the GI50 in the assay on SK-MEL-5 melanoma was 2.99 µM; in the assay with SF-268 CNS, 5.52 µM; in the assay with SK-MEL-2 melanoma, 20.4 µM; in the assay on CAKI-1 renal, 3.8 µM. Also, the TGI is over 100 µM in the assay with SF-295 CNS; over 100 µM in the assay with NCI-H522 lung; over 100 µM in the assay with K-562 leukemia; 2.81 µM with COLO 205 colon; 81.7 µM in the assay on SK-MEL-28 melanoma; over 100 µM in the assay on SF-539 CNS. The TGI in the assay with SK-MEL-5 melanoma was 11.6 µM; in the assay with SF-268 CNS it was over 100 µM; with SK-MEL-2 melanoma it was over 100 µM; in the assay on CAKI-1 renal, over 100 µM.
As to `COc1cc(C(=O)C/C(CCC(=O)Nc2ccccc2[N+](=O)[O-])=N\NC(=O)CC#N)ccc1O`, the TGI with SF-295 CNS, with NCI-H522 lung, with K-562 leukemia, with COLO 205 colon, in the assay with SK-MEL-28 melanoma and in the assay with SF-539 CNS was over 100 µM each time. In addition, the TGI in the assay on SK-MEL-5 melanoma, with SF-268 CNS, with SK-MEL-2 melanoma and in the assay with CAKI-1 renal was over 100 µM throughout.
